Measured values: US20110190274A1, “SALT OF, AND PROCESSES FOR THE PREPARATION OF, 1-ISOPROPYL-4-HEXAHYDRO-1H-1,4-DIAZEPINE” (GLAXO GROUP LIMITED, priority 2008, published 2011)
Structures can show the parent of a compound that is named as a salt. Where two headings read alike, the source gives them in different places. Blank lines part the entries; values can stand above or below the compound they belong to.

Columns and labels:
[1] = Gravimetric vapour sorption (GVS), water sorption/desorption isotherm at varying relative humidity; format: physicochemical; settings: for water reversibly adsorbed and/or absorbed, and/or desorbed (GVS): relative to minimum mass; for weight gain relative to the minimum mass at 0% RH (GVS) / weight gain cf. minimum mass (GVS): 25° C.
Protocol: Gravimetric vapour sorption (GVS) data were acquired on a Hiden IGA-Sorp analyser model (available from Hiden Isochema Ltd., 231 Europa Boulevard, Gemini Business Park, Warrington WA5 7TN, United Kingdom), generating a full sorption/desorption isotherm using water vapour perfusion at 25° C. under nitrogen gas and at varying relative humidities (RH).
23 milligrams of a sample of the crystalline Form 1 of 1-isopropyl-4-{[4-(tetrahydro-2H-pyran-4-yloxy)phenyl]carbonyl}hexahydro-1H-1,4-diazepine mono-maleate prepared in Example 4 were placed into a clean and dry tared sample mesh pan and weighed using the IGA-Sorp internal balance.
(i) starting from about 30% RH and increasing to about 90% RH in increments of about 10% RH (results shown as the solid line in the middle and on the right of FIG. 5), and then (ii) decreasing from about 90% RH to 0% RH in increments of about 10% RH (results shown as the dotted line in FIG. 5), and then (iii) increasing from 0% RH to about 30% RH, in increments of about 5% RH up to ca. 10% RH, and then in increments of about 10% RH from ca. 10% to ca. 30% RH (results shown as the solid line on the left of FIG. 5).
The weight of the sample was recorded after each ca. 10% RH increment. The point of equilibrium, after each ca. 10% RH increment, was automatically determined using a 97% asymptote setting.
Gravimetric Vapour Sorption (GVS) data, on the solid 1-isopropyl-4-{[4-(tetrahydro-2H-pyran-4-yloxy)phenyl]carbonyl}hexahydro-1H-1,4-diazepine hydrochloride from Example 2, Part C (the “kinetic” solid hydrochloride salt produced by fast crystallisation, and before purification by recrystallisation), were acquired on a DVS-1 SMS model (available from Surface Measurement System (SMS)), generating a full sorption/desorption isotherm using water vapour perfusion at 25° C. under nitrogen gas and at varying relative humidities (RH).
22 milligrams of the specified solid hydrochloride salt sample were placed into a clean and dry tared sample glass pan and weighed using the DVS-1 internal balance.
(i) starting from about 30% RH and increasing to about 90% RH in increments of about 10% RH (results shown as the line in the middle and on the right of FIG. 6, going from ca. 7-8% weight gain cf. minimum mass at ca. 30% RH, to ca. 14-15% weight gain cf. minimum mass at ca. 90% RH), and then (ii) decreasing from about 90% RH to 0% RH in increments of about 10% RH (results shown as the line in FIG. 6, starting from ca. 14-15% weight gain cf. minimum mass at ca. 90% RH, going towards the left almost horizontally to ca. 14% weight gain at ca. 30% RH, and then going rapidly down to 0% weight gain at 0% RH), and then (iii) increasing from 0% RH to about 30% RH in increments of about 10% RH (results shown as the line on the bottom left of FIG. 6, going from 0% weight gain at 0% RH to about 2% weight gain at ca. 30% RH).
The weight of the sample was recorded after each ca. 10% RH increment. The point of equilibrium was automatically determined using a 0.02 dm/dt setting.

[2] = biological target: T1, histamine H3 receptor (Homo sapiens, UniProt Q9Y5N1); test: histamine H3 functional antagonist assay using membrane prepared from cultured H3 cells; format: biochemical
T1 construct: host or cells: cultured H3 cells (membranes)
Protocol: 1-Isopropyl-4-{[4-(tetrahydro-2H-pyran-4-yloxy)phenyl]carbonyl}hexahydro-1H-1,4-diazepine hydrochloride was tested using substantially the histamine H3 functional antagonist assay disclosed on pages 47-49, and in particular page 48 line 26 to page 49 line 7, of WO 2009/030716 A1 (Glaxo Group Limited). The result is expressed as a functional pKi (fpKi) value. A functional pKi is the negative logarithm of the antagonist equilibrium dissociation constant as determined in the H3 functional antagonist assay using membrane prepared from cultured H3 cells. The result given is an average of a number of experiments.

[3] = Karl Fischer analysis of water content; format: physicochemical; settings: normal United Kingdom room humidity
Protocol: A Karl Fischer analysis of water content was carried out on the crystalline Form 1 mono-maleate salt prepared in Example 4 (at normal United Kingdom room humidity). This Karl Fischer analysis reported a water content of less than 0.1% w/w.

[4] = biological target: T2, histamine H3 receptor (Rattus norvegicus, UniProt Q9QYN8); settings: following oral administration to the rat; cited from earlier work
T2 construct: from tissue; host or cells: rat cortex

[5] = system: rats; settings: certain oral doses; cited from earlier work
[6] = system: rodent; settings: literature reports; cited from earlier work
[7] = Hygroscopicity and stability of the solid diazepine intermediate salts in air; format: physicochemical; settings: for hygroscopicity of the solid: air at normal humidities, normal relative humidity (e.g. ca. 30%) at 25° C.
From the text: (i) The use of 1-isopropyl-hexahydro-1H-1,4-diazepine bis-trifluoroacetate allows the avoidance of the use of toxic dioxane in the preparation of 1-(isopropyl)-hexahydro-1H-1,4-diazepine dihydrochloride (from the BOC-protected precursor e.g. Intermediate 1), which preparation typically (see e.g. Intermediate 2 herein) uses HCl (e.g. 4M HCl) in dry dioxane (to avoid the water present in aqueous hydrochloric acid) in order to obtain solid 1-(isopropyl)hexahydro-1H-1,4-diazepine dihydrochloride. […] This hygroscopicity makes it difficult to quantify and weigh the dihydrochloride salt for the coupling reaction, and also can lead to the presence of undesired water in the coupling reaction (e.g. with DCI).

[8] = across the 0-90% relative humidity range at 25° C. under nitrogen

T1 sequence (Q9Y5N1 whole entry): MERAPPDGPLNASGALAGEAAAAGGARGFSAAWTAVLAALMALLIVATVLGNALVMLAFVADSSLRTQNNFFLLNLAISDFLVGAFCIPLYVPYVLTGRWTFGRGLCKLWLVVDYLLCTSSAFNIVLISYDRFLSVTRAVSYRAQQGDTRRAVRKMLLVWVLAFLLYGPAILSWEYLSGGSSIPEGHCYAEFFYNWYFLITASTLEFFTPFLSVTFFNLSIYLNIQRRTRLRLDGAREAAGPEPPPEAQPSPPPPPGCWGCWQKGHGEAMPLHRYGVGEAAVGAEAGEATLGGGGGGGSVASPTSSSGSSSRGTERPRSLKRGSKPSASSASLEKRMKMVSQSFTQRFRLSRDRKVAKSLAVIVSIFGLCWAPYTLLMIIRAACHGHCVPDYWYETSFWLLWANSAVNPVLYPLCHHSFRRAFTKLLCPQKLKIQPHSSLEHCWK
T2 sequence (Q9QYN8 whole entry): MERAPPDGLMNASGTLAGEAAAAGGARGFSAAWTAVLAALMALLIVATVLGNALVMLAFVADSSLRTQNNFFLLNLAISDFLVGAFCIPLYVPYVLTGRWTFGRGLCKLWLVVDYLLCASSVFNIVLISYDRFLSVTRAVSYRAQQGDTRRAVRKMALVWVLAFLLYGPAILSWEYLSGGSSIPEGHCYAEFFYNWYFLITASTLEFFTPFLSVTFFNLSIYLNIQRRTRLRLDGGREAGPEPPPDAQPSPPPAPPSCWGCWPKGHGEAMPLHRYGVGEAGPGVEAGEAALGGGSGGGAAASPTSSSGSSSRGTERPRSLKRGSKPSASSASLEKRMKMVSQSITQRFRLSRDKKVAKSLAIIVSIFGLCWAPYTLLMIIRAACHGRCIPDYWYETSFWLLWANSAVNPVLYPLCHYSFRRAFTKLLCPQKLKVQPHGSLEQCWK

water reversibly adsorbed and/or absorbed, and/or desorbed (GVS) [1, 8]: 0.4-0.5 % w/w
SMILES: CC(C)N1CCCN(C(=O)c2ccc(OC3CCOCC3)cc2)CC1 [Example 2 Part A, 1-Isopropyl-4-{[4-(tetrahydro-2H-pyran-4-yloxy)phenyl]carbonyl}hexahydro-1H-1,4-diazepine]

Ki ([2]; 12 experiments, read-out: range of measured fpKi values): 0.501 to 20 nM
Ki ([2]; mean of 12 experiments, read-out: functional pKi (fpKi), H3 antagonism (converted)): ~5.01 nM
water sorption compared with crystalline Form 1 mono-maleate (GVS) [1, 8]: higher quantities of water
water reversibly adsorbed and/or absorbed, and/or desorbed (GVS) [1, 8]: 14-15 % w/w
weight gain relative to the minimum mass at 0% RH (GVS) ([1]; at about 30% RH, start of first sorption): 7-8 % w/w
weight gain relative to the minimum mass at 0% RH (GVS) ([1]; at about 90% RH, end of first sorption): 14-15 % w/w
weight gain cf. minimum mass (GVS) ([1]; at ca. 30% RH on desorption from ca. 90% RH): ca. 14%
weight gain cf. minimum mass (GVS) ([1]; at ca. 30% RH on re-sorption from 0% RH): about 2%
SMILES: CC(C)N1CCCN(C(=O)c2ccc(OC3CCOCC3)cc2)CC1.Cl [Example 2 Part C, 1-Isopropyl-4-{[4-(tetrahydro-2H-pyran-4-yloxy)phenyl]carbonyl}hexahydro-1H-1,4-diazepine hydrochloride]

water content (Karl Fischer) [3]: less than 0.1 % w/w
SMILES: CC(C)N1CCCN(C(=O)c2ccc(OC3CCOCC3)cc2)CC1.O=C(O)/C=C\C(=O)O [Example 4, 1-Isopropyl-4-{[4-(tetrahydro-2H-pyran-4-yloxy)phenyl]carbonyl}hexahydro-1H-1,4-diazepine mono-maleate salt (crystalline Form 1)]

SMILES: CNC(=O)c1ccc(Oc2ccc3c(c2)CCN(C2CCC2)CC3)nc1 [GSK189254]
ex vivo binding in the rat cortex [4]: inhibited
performance in cognition paradigms [5]: improved performance

SMILES: CC(C)(C)CCC#C[C@@H]1C[C@H]1c1c[nH]cn1 [GT-2331]
cognitive effect in rodent models [6]: cognitive enhancing properties

hygroscopicity of the solid [7]: very hygroscopic
SMILES: CC(C)N1CCCNCC1.Cl.Cl [Intermediate 2, 1-Isopropyl-hexahydro-1H-1,4-diazepine dihydrochloride]

stability of the solid [7]: long-term stability
hygroscopicity of the solid [7]: substantially non-hygroscopic
SMILES: CC(C)N1CCCNCC1 [Intermediate 3, 1-Isopropyl-hexahydro-1H-1,4-diazepine bis-trifluoroacetate salt]

SMILES: O=C(c1ccc(OCCCc2cnc[nH]2)cc1)C1CC1 [ciproxifan]
cognitive effect in rodent models [6]: cognitive enhancing properties

SMILES: NC(=NCc1ccc(Cl)cc1)SCCCc1cnc[nH]1 [clobenpropit]
cognitive effect in rodent models [6]: cognitive enhancing properties

SMILES: S=C(NC1CCCCC1)N1CCC(c2cnc[nH]2)CC1 [thioperamide]
cognitive effect in rodent models [6]: cognitive enhancing properties
